In US20180050993A1, “NOVEL FLUORINATED DERIVATIVES AS EGFR INHIBITORS USEFUL FOR TREATING CANCERS” (Trillium Therapeutics Inc., priority 2015, published 2018):
Counter-ions that a name gives are not always drawn. Like-named read-outs stand apart in the source and are kept apart here. One block for each compound: values may come before it.

How the values were obtained:
[1] = Human liver microsomal stability; type: in vitro ADME; conditions: stability in pooled human (50 donors) liver microsomes 0.5 mg/ml, compound 1 μM, parent compound by LC/MS
Experimental: (§1) Working stocks were initially diluted to a concentration of 40.0 μM in 0.1 M potassium phosphate buffer before addition to the reaction vials. Pooled mouse (CD-1, male) or human (50 donors) liver microsomes were utilized at a final concentration of 0.5 mg/ml. Duplicate wells were used for each time point (0 and 30 minutes). Reactions were carried out at 37° C. in a shaker, and the final concentration of DMSO was kept constant at 0.01%. The final volume for each reaction was 100 μL, which includes the addition of an NADPH-Regeneration solution (NRS) mix. This NRS mix is comprised of glucose 6-phosphate dehydrogenase (0.4 U/mL), NADP+ (1.3 mM), MgCl2 (3.3 mM), and glucose 6-phosphate (3.3 mM) in assay mixtures. Upon completion of the 30 minute time point, reactions were terminated by the addition of 1.5-volumes (150 μL) of ice-cold, acetonitrile with 0.5% formic acid and internal standard. Samples were then centrifuged at 4,000 rpm for 10 minutes to remove debris and precipitated protein. Approximately 150 μL of supernatant was subsequently transferred to a new 96 well microplate for LC/MS analysis.
(§2) Narrow-window mass extraction LC/MS analysis was performed for all samples using a Waters Xevo quadrupole time-of-flight (QTof) mass spectrometer and an ACQUITY UPLC system, to determine relative peak areas of parent compound.
(§3) Human and mouse liver microsomes contain a wide variety of drug metabolizing enzymes and are commonly used to support in vitro ADME (absorption, distribution, metabolism and excretion) studies. These microsomes are used to examine the potential first-pass metabolism by-products of orally administered drugs. Representative compounds of the application were evaluated for their stability in human and mouse liver microsomes.

[2] = Mouse liver microsomal stability; type: in vitro ADME; conditions: stability in pooled mouse (CD-1, male) liver microsomes 0.5 mg/ml, compound 1 μM, parent compound by LC/MS, in % (unit assumed)
Experimental: as §1, §2, §3

[3] = target: T1, EGFR (Homo sapiens, UniProt P00533); test: Kinase HotSpot profiling (Reaction Biology), 33P-ATP filter-binding; type: biochemical; conditions: WT EGFR
T1 construct: purchased Reaction Biology
Experimental: (§4) Base Reaction buffer; 20 mM Hepes (pH 7.5), 10 mM MgCl2, 1 mM EGTA, 0.02% Brij35, 0.02 mg/ml BSA, 0.1 mM Na3VO4, 2 mM DTT, 1% DMSO
(§5) *Required cofactors are added individually to each kinase reaction
(§6) 1. The indicated substrate was prepared in fresh Base Reaction Buffer.
(§7) 2. Any required cofactors were added to the substrate solution above.
(§8) 3. Indicated kinase was added into the substrate solution and gently mixed.
(§9) 4. Compounds in DMSO were added into the kinase reaction mixture by Acoustic technology (Echo550; nanoliter range) and incubated for 20 minutes at room temperature.
(§10) 5. 33P-ATP (specific activity 10 μCi/μl) was added into the reaction mixture to initiate the reaction.
(§11) 6. The kinase reaction was incubated for 2 hours at room temperature
(§12) 7. Reactions were spotted onto P81 ion exchange paper.
(§13) 8. Kinase activity was detected by filter-binding method.
(§14) Representative compounds of Formula I were evaluated against WT EGFR and mutant EGFR (L858R and L858R, T790M) kinases. IC50 concentrations are illustrated in Table 9.

[4] = target: T2, EGFR (L858R) (Homo sapiens, UniProt P00533, L858R); test: as above; type: biochemical; conditions: mutant EGFR L858R
T2 construct: purchased Reaction Biology
Experimental: as §4, §5, §6, §7, §8, §9, §10, §11, §12, §13, §14

[5] = target: T3, P-gp (Homo sapiens, UniProt P08183); test: Evaluation of P-gp efflux in Caco-2 cell monolayers; type: in vitro ADME;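 further: Caco-2 monolayers dosed apically or basolaterally with test compound at 5 µM in HBSS with HEPES and glucose, 37 °C, donor and receiver sampled after 120 min, LC/MS peak areas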
T3 construct: host or cells: Caco-2 (C2BBe1)

[6] = Brain concentrations after PO administration in rat, peak at 8 hours (Table 5); type: in vivo; conditions: brain, PO 50 mg/kg, Table 5 (8 hours)
[7] = Caco-2, pH 7.4, with none (verapamil 0 μM), Caco-2, Verapamil 0 μM, read-out: Recovery (%) AP-BL
[8] = Caco-2, pH 7.4, with none (verapamil 0 μM), Caco-2, Verapamil 0 μM, read-out: Recovery (%) BL-AP
[9] = Caco-2, pH 7.4, with verapamil 100 μM, Caco-2, Verapamil 100 μM, read-out: Recovery (%) AP-BL
[10] = Caco-2, pH 7.4, with verapamil 100 μM, Caco-2, Verapamil 100 μM, read-out: Recovery (%) BL-AP

T2 sequence (P00533 25-1210 L858R): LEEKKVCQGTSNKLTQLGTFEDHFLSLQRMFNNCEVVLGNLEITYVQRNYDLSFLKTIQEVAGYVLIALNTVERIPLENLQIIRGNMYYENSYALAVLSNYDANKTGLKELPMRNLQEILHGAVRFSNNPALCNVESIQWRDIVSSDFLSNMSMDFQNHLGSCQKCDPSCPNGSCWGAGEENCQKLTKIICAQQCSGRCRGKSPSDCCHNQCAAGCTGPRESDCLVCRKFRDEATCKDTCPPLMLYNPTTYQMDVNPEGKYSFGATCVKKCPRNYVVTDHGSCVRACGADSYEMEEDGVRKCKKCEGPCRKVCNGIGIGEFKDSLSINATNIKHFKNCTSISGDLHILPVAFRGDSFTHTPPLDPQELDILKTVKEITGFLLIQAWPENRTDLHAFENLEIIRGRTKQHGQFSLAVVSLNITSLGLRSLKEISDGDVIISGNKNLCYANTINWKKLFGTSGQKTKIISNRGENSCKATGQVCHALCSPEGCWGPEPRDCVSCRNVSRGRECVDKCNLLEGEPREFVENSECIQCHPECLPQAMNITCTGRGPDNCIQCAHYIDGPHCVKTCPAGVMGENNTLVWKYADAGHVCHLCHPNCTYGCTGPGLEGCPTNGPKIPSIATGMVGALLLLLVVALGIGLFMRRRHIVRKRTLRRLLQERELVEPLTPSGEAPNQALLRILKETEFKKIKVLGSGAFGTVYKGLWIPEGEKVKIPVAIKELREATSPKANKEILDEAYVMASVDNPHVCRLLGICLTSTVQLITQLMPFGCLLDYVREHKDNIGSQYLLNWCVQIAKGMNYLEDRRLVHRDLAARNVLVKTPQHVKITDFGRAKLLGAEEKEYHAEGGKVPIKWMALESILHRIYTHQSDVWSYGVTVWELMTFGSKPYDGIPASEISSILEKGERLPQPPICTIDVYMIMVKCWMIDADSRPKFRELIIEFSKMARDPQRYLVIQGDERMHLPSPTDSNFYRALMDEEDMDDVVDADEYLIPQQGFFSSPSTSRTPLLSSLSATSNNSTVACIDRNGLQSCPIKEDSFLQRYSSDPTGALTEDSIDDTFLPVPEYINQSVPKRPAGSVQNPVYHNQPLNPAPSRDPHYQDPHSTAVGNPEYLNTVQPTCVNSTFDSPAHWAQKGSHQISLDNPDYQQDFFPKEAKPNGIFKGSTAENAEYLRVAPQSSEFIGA
T1 sequence (P00533 25-1210): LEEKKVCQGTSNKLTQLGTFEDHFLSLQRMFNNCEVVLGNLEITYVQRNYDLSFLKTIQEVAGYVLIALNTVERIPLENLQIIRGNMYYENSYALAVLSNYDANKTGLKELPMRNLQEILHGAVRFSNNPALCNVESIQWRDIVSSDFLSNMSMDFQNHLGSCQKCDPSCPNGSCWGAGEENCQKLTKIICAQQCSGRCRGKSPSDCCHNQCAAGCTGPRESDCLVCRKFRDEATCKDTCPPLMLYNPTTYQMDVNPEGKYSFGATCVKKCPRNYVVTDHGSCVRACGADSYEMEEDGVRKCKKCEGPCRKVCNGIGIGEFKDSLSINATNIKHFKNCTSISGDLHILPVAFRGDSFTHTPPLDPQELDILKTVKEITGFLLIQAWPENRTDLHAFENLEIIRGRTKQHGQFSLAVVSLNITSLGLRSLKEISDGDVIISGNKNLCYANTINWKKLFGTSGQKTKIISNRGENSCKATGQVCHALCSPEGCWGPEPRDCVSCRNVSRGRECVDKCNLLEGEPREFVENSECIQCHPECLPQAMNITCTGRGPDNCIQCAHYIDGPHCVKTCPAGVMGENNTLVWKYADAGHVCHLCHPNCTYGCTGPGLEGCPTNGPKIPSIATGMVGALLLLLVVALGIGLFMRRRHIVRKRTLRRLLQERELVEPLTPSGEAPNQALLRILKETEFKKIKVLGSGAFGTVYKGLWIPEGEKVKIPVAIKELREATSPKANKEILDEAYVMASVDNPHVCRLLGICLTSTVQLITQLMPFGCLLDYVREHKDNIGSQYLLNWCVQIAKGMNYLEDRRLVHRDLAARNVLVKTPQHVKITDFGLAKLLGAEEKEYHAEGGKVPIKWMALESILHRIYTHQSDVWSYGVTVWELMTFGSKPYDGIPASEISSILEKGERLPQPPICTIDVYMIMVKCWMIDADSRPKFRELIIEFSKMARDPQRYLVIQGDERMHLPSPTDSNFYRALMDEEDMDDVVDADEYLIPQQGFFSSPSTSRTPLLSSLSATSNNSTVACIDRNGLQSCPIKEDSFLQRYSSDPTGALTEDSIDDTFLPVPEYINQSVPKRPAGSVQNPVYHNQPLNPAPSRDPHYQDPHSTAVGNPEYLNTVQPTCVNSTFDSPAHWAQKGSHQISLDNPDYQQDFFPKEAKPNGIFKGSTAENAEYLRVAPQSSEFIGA
T3 sequence (P08183 whole entry): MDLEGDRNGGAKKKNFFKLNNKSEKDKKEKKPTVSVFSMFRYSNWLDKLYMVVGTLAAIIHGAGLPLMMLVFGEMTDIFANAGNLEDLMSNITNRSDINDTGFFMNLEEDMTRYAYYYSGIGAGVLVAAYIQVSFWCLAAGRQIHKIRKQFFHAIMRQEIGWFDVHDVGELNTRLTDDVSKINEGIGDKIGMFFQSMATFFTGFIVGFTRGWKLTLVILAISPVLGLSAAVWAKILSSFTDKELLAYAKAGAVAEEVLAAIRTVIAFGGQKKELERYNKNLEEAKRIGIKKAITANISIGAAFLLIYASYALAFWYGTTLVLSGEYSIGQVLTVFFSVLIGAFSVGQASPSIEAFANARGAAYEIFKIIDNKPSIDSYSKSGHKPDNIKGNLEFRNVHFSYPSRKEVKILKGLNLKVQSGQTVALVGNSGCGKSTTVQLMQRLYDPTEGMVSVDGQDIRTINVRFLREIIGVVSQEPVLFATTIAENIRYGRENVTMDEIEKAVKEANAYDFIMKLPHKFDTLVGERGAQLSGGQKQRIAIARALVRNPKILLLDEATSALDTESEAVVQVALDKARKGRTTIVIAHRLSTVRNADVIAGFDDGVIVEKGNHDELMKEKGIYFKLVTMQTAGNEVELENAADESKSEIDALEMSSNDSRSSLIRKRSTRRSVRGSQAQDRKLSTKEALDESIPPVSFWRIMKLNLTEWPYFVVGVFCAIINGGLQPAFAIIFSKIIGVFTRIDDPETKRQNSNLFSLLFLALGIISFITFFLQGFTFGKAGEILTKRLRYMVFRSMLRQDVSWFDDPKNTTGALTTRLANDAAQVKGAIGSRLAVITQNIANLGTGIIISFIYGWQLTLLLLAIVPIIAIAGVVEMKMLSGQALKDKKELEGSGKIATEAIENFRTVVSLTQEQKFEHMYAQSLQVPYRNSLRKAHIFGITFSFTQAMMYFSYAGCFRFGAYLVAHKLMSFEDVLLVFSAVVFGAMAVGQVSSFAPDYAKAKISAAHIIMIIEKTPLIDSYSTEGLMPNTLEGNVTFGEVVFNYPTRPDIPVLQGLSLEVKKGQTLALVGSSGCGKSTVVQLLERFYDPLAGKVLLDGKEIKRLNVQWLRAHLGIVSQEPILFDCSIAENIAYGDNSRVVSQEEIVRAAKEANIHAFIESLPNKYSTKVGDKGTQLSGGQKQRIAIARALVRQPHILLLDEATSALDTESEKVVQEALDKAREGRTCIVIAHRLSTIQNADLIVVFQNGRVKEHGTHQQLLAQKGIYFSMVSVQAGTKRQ

HLM (30 min) [1]: 54.7%
MLM (30 min) [2]: 22.2
SMILES: FC(F)OCCOc1cc2ncnc(Nc3ccccc3Cl)c2cc1OCCOC(F)F [2(Dd)]

HLM (30 min) [1]: 49.2%
MLM (30 min) [2]: 11.8
SMILES: FC(F)OCCOc1cc2ncnc(Nc3ccccc3C(F)(F)F)c2cc1OCCOC(F)F [2(Ee), 6,7-bis[2-(difluoromethoxy)ethoxy]-N-[2-(trifluoromethyl)phenyl]quinazolin-4-amine]

HLM (30 min) [1]: 76.4%
MLM (30 min) [2]: 69.6
SMILES: Fc1c(Cl)cccc1Nc1ncnc2cc(OCCOC(F)F)c(OCCOC(F)F)cc12 [2(Ff), N-(3-chloro-2-fluoro-phenyl)-6,7-bis[2-(difluoromethoxy)ethoxy]quinazolin-4-amine]

HLM (30 min) [1]: 99.8%
MLM (30 min) [2]: 106.2
SMILES: FC(F)OCCOc1cc2ncnc(Nc3ccc(C(F)(F)F)cc3)c2cc1OCCOC(F)F [2(Gg), 6,7-bis[2-(difluoromethoxy)ethoxy]-N-[4-(trifluoromethyl)phenyl]quinazolin-4-amine]

HLM (30 min) [1]: 71.6%
MLM (30 min) [2]: 51.8
SMILES: Fc1ccccc1Nc1ncnc2cc(OCCOC(F)F)c(OCCOC(F)F)cc12 [2(Hh), 6,7-bis[2-(difluoromethoxy)ethoxy]-N-(2-fluorophenyl)quinazolin-4-amine]

HLM (30 min) [1]: 77.6%
MLM (30 min) [2]: 43.7
SMILES: Fc1cccc(F)c1Nc1ncnc2cc(OCCOC(F)F)c(OCCOC(F)F)cc12 [2(Kk), 6,7-bis[2-(difluoromethoxy)ethoxy]-N-(2,6-difluorophenyl)quinazolin-4-amine]

HLM (30 min) [1]: 82.1%
MLM (30 min) [2]: 39.3
SMILES: Fc1cc(F)c(Nc2ncnc3cc(OCCOC(F)F)c(OCCOC(F)F)cc23)c(F)c1 [2(Ll), 6,7-bis[2-(difluoromethoxy)ethoxy]-N-(2,4,6-trifluorophenyl)quinazolin-4-amine]

IC50 [3]: 0.587 nM
IC50 [4]: 0.977 nM
SMILES: C#Cc1cccc(Nc2ncnc3cc(OCCOC(F)F)c(OCCOC(F)F)cc23)c1F [2(Nn)]

IC50 [3]: 0.0205 nM
IC50 [4]: 0.052 nM
SMILES: COc1cc2ncnc(Nc3ccc(F)c(Cl)c3F)c2cc1OC(=O)N1CCC(OC(F)F)CC1 [2(Oo), [4-(3-chloro-2,4-difluoro-anilino)-7-methoxy-quinazolin-6-yl] 4-(difluoromethoxy)piperidine-1-carboxylate]

IC50 [3]: 0.143 nM
IC50 [4]: 0.345 nM
SMILES: COc1cc2ncnc(Nc3ccc(F)c(Cl)c3F)c2cc1OC(=O)N1CCC[C@H](OC(F)F)C1 [2(Pp), [4-(3-chloro-2,4-difluoro-anilino)-7-methoxy-quinazolin-6-yl] (3S)-3-(difluoromethoxy)piperidine-1-carboxylate]

HLM (30 min) [1]: 90.7%
MLM (30 min) [2]: 72.5
SMILES: Fc1c(Nc2ncnc3cc(OCCOC(F)F)c(OCCOC(F)F)cc23)ccc(Cl)c1Cl [2(a), N-(3,4-dichloro-2-fluoro-phenyl)-6,7-bis[2 (difluoromethoxy)ethoxy]quinazolin-4-amine]

HLM (30 min) [1]: 96.4%
MLM (30 min) [2]: 94.3
SMILES: C#Cc1cccc(Nc2ncnc3cc(OCCOC(F)F)c(OCCOC(F)F)cc23)c1 [2(b), 6,7-bis[2-(difluoromethoxy)ethoxy]-N-(3-ethynylphenyl)quinazolin-4-amine]

HLM (30 min) [1]: 88.5%
MLM (30 min) [2]: 94.6
SMILES: Fc1ccc(Nc2ncnc3cc(OCCOC(F)F)c(OCCOC(F)F)cc23)cc1Cl [2(c), N-(3-chloro-4-fluoro-phenyl)-6,7-bis[2-(difluoromethoxy)ethoxy]quinazolin-4-amine]

SMILES: Fc1ccc(Nc2ncnc3cc(OCCOC(F)F)c(OCCOC(F)F)cc23)c(F)c1Cl [2(d), N-(3-chloro-2,4-difluoro-phenyl)-6,7-bis[2-(difluoromethoxy)ethoxy]quinazolin-4-amine]
HLM (30 min) [1]: 83.1%
MLM (30 min) [2]: 90.4

HLM (30 min) [1]: 89.6%
MLM (30 min) [2]: 67.8
SMILES: Fc1cc(Cl)ccc1Nc1ncnc2cc(OCCOC(F)F)c(OCCOC(F)F)cc12 [2(e), N-(4-chloro-2-fluoro-phenyl)-6,7-bis[2-(difluoromethoxy)ethoxy]quinazolin-4-amine]

HLM (30 min) [1]: 19.7%
MLM (30 min) [2]: 1.5
SMILES: COc1cc2ncnc(Nc3cccc(Cl)c3F)c2cc1OCCOC(F)F [2(i), N-(3-chloro-2-fluoro-phenyl)-6-[2-(difluoromethoxy)ethoxy]-7-methoxy-quinazolin-4-amine]

HLM (30 min) [1]: 60.4%
MLM (30 min) [2]: 0.7
SMILES: COc1cc2ncnc(Nc3ccc(F)c(Cl)c3F)c2cc1OCCOC(F)F [2(k), N-(3-chloro-2,4-difluoro-phenyl)-6-[2-(difluoromethoxy)ethoxy]-7-methoxy-quinazolin-4-amine]

IC50 [3]: 0.0298 nM
IC50 [4]: 0.0891 nM
SMILES: COc1cc2ncnc(Nc3ccc(F)c(Cl)c3F)c2cc1NC(=O)N1CCC(COC(F)F)CC1 [3(A), N-[4-(3-chloro-2,4-difluoro-anilino)-7-methoxy-quinazolin-6-yl]-4-(difluoromethoxymethyl)piperidine-1-carboxamide]

IC50 [3]: 0.0125 nM
IC50 [4]: 0.0138 nM
SMILES: COc1cc2ncnc(Nc3ccc(F)c(Cl)c3F)c2cc1NC(=O)N1CC(OC(F)F)C1 [3(B), N-[4-(3-chloro-2,4-difluoro-anilino)-7-methoxy-quinazolin-6-yl]-3-(difluoromethoxy)azetidine-1-carboxamide]

recovery at 120 min, 5 μM [5, 7]: 76.9%
recovery at 120 min, 5 μM [5, 8]: 84.3%
recovery at 120 min, 5 μM [5, 9]: 90.3%
recovery at 120 min, 5 μM [5, 10]: 99.7%
Papp A→B at 120 min, 5 μM ([5]; pH 7.4, Caco-2, Verapamil 0 μM): 0.64 ×10⁻⁶ cm/s
Papp B→A at 120 min, 5 μM ([5]; pH 7.4, Caco-2, Verapamil 0 μM): 15.8 ×10⁻⁶ cm/s
SMILES: C[C@H]1O[C@@H](O[C@H]2[C@@H](O)C[C@H](O[C@H]3[C@@H](O)C[C@H](O[C@H]4CC[C@@]5(C)[C@H](CC[C@@H]6[C@@H]5C[C@@H](O)[C@]5(C)[C@@H](C7=CC(=O)OC7)CC[C@]65O)C4)O[C@@H]3C)O[C@@H]2C)C[C@H](O)[C@@H]1O [Digoxin]

recovery at 120 min, 5 μM [5, 7]: 55.5%
recovery at 120 min, 5 μM [5, 8]: 56.2%
recovery at 120 min, 5 μM [5, 9]: 76.8%
recovery at 120 min, 5 μM [5, 10]: 58%
Papp A→B at 120 min, 5 μM ([5]; pH 7.4, Caco-2, Verapamil 0 μM): 16 ×10⁻⁶ cm/s
Papp B→A at 120 min, 5 μM ([5]; pH 7.4, Caco-2, Verapamil 0 μM): 13.9 ×10⁻⁶ cm/s
Cmax ([6]; Sprague-Dawley): 828 ng/g
Tmax ([6]; Sprague-Dawley): 8 h
AUCInf [6]: 18449 ng·h/g
AUClast [6]: 14522 ng·h/g
SMILES: C#Cc1cccc(Nc2ncnc3cc(OCCOC)c(OCCOC)cc23)c1 [Erlotinib•HCl, N-(3-ethynylphenyl)-6,7-bis(2-methoxyethoxy)quinazolin-4-amine]

recovery at 120 min, 5 μM [5, 7]: 69.8%
recovery at 120 min, 5 μM [5, 8]: 85%
Papp A→B at 120 min, 5 μM ([5]; pH 7.4, Caco-2, Verapamil 0 μM): 25.1 ×10⁻⁶ cm/s
Papp B→A at 120 min, 5 μM ([5]; pH 7.4, Caco-2, Verapamil 0 μM): 16.3 ×10⁻⁶ cm/s
efflux ratio at 120 min, 5 µM ([5]; pH 7.4, Caco-2, Verapamil 0 μM): 0.65
SMILES: CC(C)NCC(O)COc1cccc2ccccc12 (centres unmarked) [Propranolol]
